ChEMBL document CHEMBL5360655, “Design, Synthesis, and Biological Evaluation of Novel P2X7 Receptor Antagonists for the Treatment of Septic Acute Kidney Injury” (J Med Chem, 2023)
Activity calls are given as the source filed them. The calls are words filed in the database; no cut-off is given here.

Tests used:
[1] = target: T1, P2X purinoceptor 7 (Homo sapiens) (UniProt Q99572); assay: Antagonist activity at human P2X7 receptor expressed in HEK293 cells assessed as inhibition of ATP-induced receptor pore formation at 10 uM by propidium iodide dye uptake based fluorescence analysis; format: cell-based
T1 sequence (whole entry): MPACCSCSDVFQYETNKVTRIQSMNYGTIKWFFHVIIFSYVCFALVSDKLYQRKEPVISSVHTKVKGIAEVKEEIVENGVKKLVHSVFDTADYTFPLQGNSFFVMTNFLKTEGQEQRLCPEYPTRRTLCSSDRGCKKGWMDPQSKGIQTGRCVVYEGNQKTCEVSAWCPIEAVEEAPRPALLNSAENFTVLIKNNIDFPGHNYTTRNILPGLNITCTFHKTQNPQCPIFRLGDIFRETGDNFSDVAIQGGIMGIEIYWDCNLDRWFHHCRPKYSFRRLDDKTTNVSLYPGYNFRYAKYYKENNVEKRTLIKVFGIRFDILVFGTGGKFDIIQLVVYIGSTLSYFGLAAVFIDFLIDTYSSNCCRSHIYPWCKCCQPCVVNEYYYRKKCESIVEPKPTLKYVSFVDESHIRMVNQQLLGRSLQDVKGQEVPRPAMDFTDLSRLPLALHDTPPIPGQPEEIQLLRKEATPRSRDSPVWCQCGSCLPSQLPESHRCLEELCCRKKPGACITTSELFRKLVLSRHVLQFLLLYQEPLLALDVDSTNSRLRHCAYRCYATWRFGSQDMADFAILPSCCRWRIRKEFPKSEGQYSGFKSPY

[2] = target: T2, P2X purinoceptor 7 (Mus musculus) (UniProt Q9Z1M0); assay: Antagonist activity at mouse P2X7 receptor expressed in HEK293 cells assessed as inhibition of ATP-induced receptor pore formation at 10 uM by propidium iodide dye uptake based fluorescence analysis; format: cell-based
T2 sequence (whole entry): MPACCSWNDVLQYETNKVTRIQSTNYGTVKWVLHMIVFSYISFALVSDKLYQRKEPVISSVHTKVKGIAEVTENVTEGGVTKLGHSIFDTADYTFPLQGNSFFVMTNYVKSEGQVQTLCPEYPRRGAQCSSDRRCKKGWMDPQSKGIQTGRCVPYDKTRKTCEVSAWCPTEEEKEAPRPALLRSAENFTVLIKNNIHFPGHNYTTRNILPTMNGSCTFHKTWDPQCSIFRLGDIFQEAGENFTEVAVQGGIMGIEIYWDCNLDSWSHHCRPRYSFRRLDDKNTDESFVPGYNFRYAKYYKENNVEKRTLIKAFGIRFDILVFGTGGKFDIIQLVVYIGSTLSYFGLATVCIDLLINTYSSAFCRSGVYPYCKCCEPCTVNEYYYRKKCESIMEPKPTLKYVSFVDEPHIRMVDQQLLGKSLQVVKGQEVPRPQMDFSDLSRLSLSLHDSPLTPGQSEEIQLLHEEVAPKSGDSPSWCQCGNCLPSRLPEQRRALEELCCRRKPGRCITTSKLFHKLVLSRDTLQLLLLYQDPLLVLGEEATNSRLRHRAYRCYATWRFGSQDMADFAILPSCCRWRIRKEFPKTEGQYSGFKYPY

[3] = target: T1, P2X purinoceptor 7 (Homo sapiens); assay: Antagonist activity at human P2X7 receptor expressed in HEK293 cells assessed as inhibition of ATP-induced receptor pore formation at 1 uM by propidium iodide dye uptake based fluorescence analysis; format: cell-based
[4] = target: T2, P2X purinoceptor 7 (Mus musculus); assay: Antagonist activity at mouse P2X7 receptor expressed in HEK293 cells assessed as inhibition of ATP-induced receptor pore formation at 1 uM by propidium iodide dye uptake based fluorescence analysis; format: cell-based
[5] = target: T1, P2X purinoceptor 7 (Homo sapiens); assay: Antagonist activity at human P2X7 receptor expressed in HEK293 cells assessed as inhibition of ATP-induced receptor pore formation at 200 nM by propidium iodide dye uptake based fluorescence analysis; format: cell-based
[6] = target: T2, P2X purinoceptor 7 (Mus musculus); assay: Antagonist activity at mouse P2X7 receptor expressed in HEK293 cells assessed as inhibition of ATP-induced receptor pore formation at 200 nM by propidium iodide dye uptake based fluorescence analysis; format: cell-based
P2X purinoceptor 7 [7] = target: T3, P2X purinoceptor 7 (Homo sapiens, UniProt Q99572); assay: Antagonist activity at human P2X7 receptor expressed in HEK293 cells assessed as inhibition of ATP-induced receptor pore formation by propidium iodide dye uptake based fluorescence analysis; format: cell-based
T3 sequence (Q99572 whole entry): T1 sequence (whole entry)

P2X purinoceptor 7 [8] = target: T4, P2X purinoceptor 7 (Mus musculus, UniProt Q9Z1M0); assay: Antagonist activity at mouse P2X7 receptor expressed in HEK293 cells assessed as inhibition of ATP-induced receptor pore formation by propidium iodide dye uptake based fluorescence analysis; format: cell-based
T4 sequence (Q9Z1M0 whole entry): T2 sequence (whole entry)

[9] = Intrinsic clearance in human liver microsomes; format: ADME, Microsome; settings: read-out: CLH
[10] = Half life in human liver microsomes; format: ADME, Microsome
[11] = Intrinsic clearance in mouse liver microsomes; format: ADME, Microsome; settings: read-out: CLH
[12] = Half life in mouse liver microsomes; format: ADME, Microsome

inhibition ([3]; filed as antagonist)	inhibition ([4]; filed as antagonist)	IC50 (P2X purinoceptor 7 [8])	inhibition [5]	inhibition [6]	inhibition [3]	SMILES	further results
						O=C(NCc1cn(-c2cc(Cl)ccn2)nn1)c1ccc(C(F)(F)F)cc1Cl	inhibition ([1]; filed as antagonist): 45.1%; inhibition [2]: 39.3%
						O=C(NCc1cn(-c2cc(Cl)ccn2)nn1)c1ccc(C(F)(F)F)c(Br)c1	inhibition ([1]; filed as antagonist): 53.5%; inhibition [2]: 22.5%
78.8%	112%	58.5 nM				O=C(NCc1cn(-c2cc(Cl)ccn2)nn1)c1cnc(-c2cccc(NS(=O)(=O)N3CCOCC3)c2)s1	inhibition ([5]; filed as antagonist): 46.5%; inhibition ([6]; filed as antagonist): 82.4%; IC50 (P2X purinoceptor 7 [7]): 436 nM; CLint scaled [9]: 24.1 mL/min/kg; half-life [10]: 1.2 h; CLint scaled [11]: 215 mL/min/kg; half-life [12]: 0.423 h
59.2%	51%	1790 nM	35.7%	inactive		COc1ccc(-c2ccc(Cl)c(C(=O)NCc3cn(-c4cc(Cl)ccn4)nn3)c2)cc1OC	IC50 (P2X purinoceptor 7 [7]): 285 nM; CLint scaled [9]: 17.8 mL/min/kg; half-life [10]: 1.63 h; CLint scaled [11]: 216 mL/min/kg; half-life [12]: 0.421 h
						O=C(NCc1cn(-c2cc(Cl)ccn2)nn1)c1cccc(C(F)(F)F)c1Cl	inhibition ([1]; filed as antagonist): 46.5%; inhibition [2]: 13.2%
52.3%	89.8%	93.3 nM	26.6%			CS(=O)(=O)Nc1ccc(-c2ncc(C(=O)NCc3cn(-c4cc(Cl)ccn4)nn3)s2)cc1	inhibition ([6]; filed as antagonist): 71.6%; IC50 (P2X purinoceptor 7 [7]): 340 nM; CLint scaled [9]: < 12 mL/min/kg; half-life [10]: > 2 h; CLint scaled [11]: < 12 mL/min/kg; half-life [12]: > 2 h
			12.4%	inactive	33.3%	CS(=O)(=O)c1ccc(-c2ncc(C(=O)NCc3cn(-c4ccc(Br)cn4)nn3)s2)cc1	inhibition [4]: inactive
			inactive	inactive	36.7%	CS(=O)(=O)c1cccc(-c2ncc(C(=O)NCc3cn(-c4cc(Cl)ccn4)nn3)s2)c1	inhibition [4]: 25.8%
40.9%	74%	166 nM	5%			CS(=O)(=O)c1ccc(-c2csc(C(=O)NCc3cn(-c4cc(Cl)ccn4)nn3)n2)cc1	inhibition ([6]; filed as antagonist): 55.2%
62.5%	83.9%	69.9 nM				O=C(NCc1cn(-c2cc(Cl)ccn2)nn1)c1cnc(-c2cccc(NS(=O)(=O)C3CC3)c2)s1	inhibition ([5]; filed as antagonist): 40%; inhibition ([6]; filed as antagonist): 68.3%; IC50 (P2X purinoceptor 7 [7]): 656 nM; CLint scaled [9]: < 12 mL/min/kg; half-life [10]: > 2 h; CLint scaled [11]: < 12 mL/min/kg; half-life [12]: > 2 h
	41.9%		inactive	23.3%	23.2%	CS(=O)(=O)c1ccc(-c2nc(C(=O)NCc3cn(-c4cc(F)ccn4)nn3)cs2)cc1	
						O=C(NCc1cn(-c2cc(Cl)ccn2)nn1)c1cc(Br)ccc1Cl	inhibition ([1]; filed as antagonist): 59.3%; inhibition [2]: 10%
	72.4%	138 nM	13.6%		33.1%	O=C(NCc1cn(-c2cc(Cl)ccn2)nn1)c1cc(-c2cccc3ncccc23)ccc1Cl	inhibition ([1]; filed as antagonist): > 50%; inhibition ([2]; filed as antagonist): > 50%; inhibition ([6]; filed as antagonist): 66.7%
40%	71%	99.1 nM	22.9%			CS(=O)(=O)c1ccc(-c2ccc(Cl)c(C(=O)NCc3cn(-c4cc(Cl)ccn4)nn3)c2)cc1	inhibition ([1]; filed as antagonist): > 50%; inhibition ([2]; filed as antagonist): > 50%; inhibition ([6]; filed as antagonist): 66%
41.9%	49.6%		inactive	inactive		CS(=O)(=O)c1cccc(-c2ccc(Cl)c(C(=O)NCc3cn(-c4cc(Cl)ccn4)nn3)c2)c1	inhibition ([1]; filed as antagonist): > 50%; inhibition ([2]; filed as antagonist): > 50%
	52%	626 nM	inactive	inactive	6.2%	CS(=O)(=O)c1ccc(-c2ncc(C(=O)NCc3cn(-c4cccc(Br)n4)nn3)s2)cc1	
	59.3%	409 nM	20.7%	inactive	39.2%	CC(C)Cc1ccc(-c2ccc(Cl)c(C(=O)NCc3cn(-c4cc(Cl)ccn4)nn3)c2)cc1	

inhibition ([3]; filed as antagonist)	inhibition ([4]; filed as antagonist)	IC50 (P2X purinoceptor 7 [8])	inhibition [5]	inhibition [6]	inhibition [3]	SMILES	further results
			13.4%	17.8%	23.3%	Cc1cc(F)ccc1-c1ccc(Cl)c(C(=O)NCc2cn(-c3cc(Cl)ccn3)nn2)c1	inhibition [4]: 9.2%
						O=C(NCc1cn(-c2cc(Cl)ccn2)nn1)c1ccc(Cl)cc1	inhibition [1]: inactive; inhibition ([2]; filed as antagonist): 62.8%
			15.6%	inactive	34.1%	O=C(NCc1cn(-c2cc(Cl)ccn2)nn1)c1cc(-c2cccc3[nH]ccc23)ccc1Cl	inhibition [4]: 10.2%
76.9%	74.7%	1860 nM	30.8%	32.8%		CS(=O)(=O)Nc1cccc(-c2ccc(Cl)c(C(=O)NCc3cn(-c4cc(Cl)ccn4)nn3)c2)c1	IC50 (P2X purinoceptor 7 [7]): 91.4 nM; CLint scaled [9]: 30.6 mL/min/kg; half-life [10]: 0.947 h; CLint scaled [11]: 65.4 mL/min/kg; half-life [12]: 1.39 h
						O=C(NCc1cn(-c2cc(Cl)ccn2)nn1)c1ccccc1Cl	inhibition [1]: inactive; inhibition [2]: inactive
51.6%			11%	inactive		CS(=O)(=O)c1ccc(-c2nc(C(=O)NCc3cn(-c4ccc(Br)cn4)nn3)cs2)cc1	inhibition [4]: inactive; IC50 (P2X purinoceptor 7 [7]): 811 nM
			24.4%	19.1%	21.9%	Nc1cccc(-c2ccc(Cl)c(C(=O)NCc3cn(-c4cc(Cl)ccn4)nn3)c2)c1	inhibition [4]: inactive
						O=C(NCc1cn(-c2cc(Cl)ccn2)nn1)c1c(Cl)cccc1Br	inhibition [1]: 23.1%; inhibition ([2]; filed as antagonist): 62.3%
	62.5%	351 nM	inactive	25.6%	inactive	O=C(NCc1cn(-c2cc(Cl)ccn2)nn1)c1cc(-c2cccc3cc[nH]c23)ccc1Cl	
	60.7%	188 nM			39.2%	Nc1ccc(-c2ncc(C(=O)NCc3cn(-c4cc(Cl)ccn4)nn3)s2)cc1	inhibition ([5]; filed as antagonist): 46.2%; inhibition ([6]; filed as antagonist): 51.7%
45.1%	61.8%	196 nM	37.8%			CS(=O)(=O)c1ccc(-c2ncc(C(=O)NCc3cn(-c4cc(F)ccn4)nn3)s2)cc1	inhibition ([6]; filed as antagonist): 68.4%
						Cc1cccc(Cl)c1C(=O)NCc1cn(-c2cc(Cl)ccn2)nn1	inhibition [1]: inactive; inhibition [2]: 34.4%
	45.1%		inactive	inactive	inactive	CS(=O)(=O)Nc1ccc(-c2ccc(Cl)c(C(=O)NCc3cn(-c4cc(Cl)ccn4)nn3)c2)cc1	
53.8%			10.1%	inactive		CS(=O)(=O)c1ccc(-c2nc(C(=O)NCc3cn(-c4cccc(Br)n4)nn3)cs2)cc1	inhibition [4]: inactive; IC50 (P2X purinoceptor 7 [7]): 710 nM
57.3%			9.8%	2.9%		Nc1cccc(-c2ncc(C(=O)NCc3cn(-c4cc(Cl)ccn4)nn3)s2)c1	inhibition [4]: 35.2%; IC50 (P2X purinoceptor 7 [7]): 658 nM
			inactive	inactive	6.8%	CS(=O)(=O)Nc1cccc(-c2ncc(C(=O)NCc3cn(-c4cc(Cl)ccn4)nn3)s2)c1	inhibition [4]: 17.3%
